# Tests used:
# PPAR (LBD of mPPARα) = biological target: T1, PPAR (LBD of mPPARα) (Mus musculus, UniProt P23204); assay: Yeast two-hybrid interaction with PPAR; assay type: binding; settings: β-galactosidase ONPG assay, 1 μM ligand or vehicle
# T1 construct: PPAR (LBD of mPPARα); expressed in transfected cells; host or cells: Saccharomyces cerevisiae Y190
# T1 sequence (P23204 239-466 limits assumed): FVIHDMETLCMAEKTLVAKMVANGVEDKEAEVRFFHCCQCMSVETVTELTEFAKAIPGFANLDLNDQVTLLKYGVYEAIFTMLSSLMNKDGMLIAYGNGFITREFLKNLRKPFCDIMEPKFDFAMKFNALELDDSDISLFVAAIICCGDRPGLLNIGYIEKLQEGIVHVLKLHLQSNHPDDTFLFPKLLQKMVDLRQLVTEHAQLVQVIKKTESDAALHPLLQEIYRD
# T1 sequence (Q9Y6Q9 401-1204 E704Q partner limits assumed): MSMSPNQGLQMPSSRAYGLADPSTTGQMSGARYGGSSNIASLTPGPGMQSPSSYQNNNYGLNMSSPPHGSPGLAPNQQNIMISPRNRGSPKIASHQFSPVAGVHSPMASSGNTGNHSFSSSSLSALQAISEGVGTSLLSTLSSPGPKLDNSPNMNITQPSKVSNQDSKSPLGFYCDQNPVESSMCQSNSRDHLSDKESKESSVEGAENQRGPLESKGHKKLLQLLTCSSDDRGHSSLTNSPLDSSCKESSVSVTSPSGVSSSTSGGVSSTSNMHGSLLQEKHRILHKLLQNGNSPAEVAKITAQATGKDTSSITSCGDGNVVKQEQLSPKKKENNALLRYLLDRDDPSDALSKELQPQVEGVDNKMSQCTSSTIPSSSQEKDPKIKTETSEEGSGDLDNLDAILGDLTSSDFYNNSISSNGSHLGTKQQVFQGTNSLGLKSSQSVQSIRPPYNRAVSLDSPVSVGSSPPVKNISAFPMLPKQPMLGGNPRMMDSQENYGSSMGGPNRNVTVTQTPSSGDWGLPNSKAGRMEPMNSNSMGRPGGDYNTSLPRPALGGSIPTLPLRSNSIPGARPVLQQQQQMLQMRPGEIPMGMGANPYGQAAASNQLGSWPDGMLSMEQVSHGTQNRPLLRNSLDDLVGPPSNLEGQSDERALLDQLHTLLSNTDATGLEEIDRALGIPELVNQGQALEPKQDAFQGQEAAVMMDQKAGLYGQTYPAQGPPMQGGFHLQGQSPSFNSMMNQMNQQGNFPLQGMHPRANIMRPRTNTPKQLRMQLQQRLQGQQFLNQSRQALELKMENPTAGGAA
# Protocol: The protein—protein interactions between RAC3 and several steroid/nuclear receptors were analyzed by the yeast two-hybrid system. The original two-hybrid clone, RAC3.1 in pGAD10 vector, was retransformed together with yeast expression vectors for Gal4 DBD fusion of selected hormone receptor genes into Y190 cells. The receptors used include RAR (full-length hRARα), RXR (full-length hRXRα), VDR (LBD of human Vitamin D receptor), PPAR (LBD of mPPARα), TR (LBD) of hTRβ), COUP (LBD of COUP-TFI). Three independent colonies from each transformation were selected and analyzed for expression of […] activities by liquid ONPG assay (FIG. 6) after treatment with 1 μM of corresponding ligands (closed bars), or with equal concentration of vehicle alone (open bars). […] The ligands used in these experiments were atRA, VitD3 (1,25-dihydroxyvitamin D3), and Wy (Wy 14,642). […] In the absence of ligand, RAC3 can interact with RAR and PPAR.
# histone = assay: Histone acetyltransferase (HAT) activity; assay type: biochemical; settings: compared with the p/CAF; unpublished data
# CBP = assay: Far-Western analysis of interaction with GST-CBP fusions; assay type: binding; settings: 35S-labeled full-length RAC3
# Protocol: GST fusion proteins were overexpressed and purified from DH5α cells on glutathione agarose beads. The fusion proteins were separated on denaturing protein gels (SDS-PAGE) and electroblotted onto nitrocellulose filters in a transfer buffer (25 mM Tris-HCl, pH 8.3; 192 mM glycine; 0.01% SDS). After denaturation in 6 M guanidine hydrochloride (GnHCl), the proteins were renatured by stepwise dilution of GnHCl to 0.187 M in HB buffer (25 mM Hepes, pH 7.7; 25 mM NaCl; 5 mM MgC12; 1 mM DTT). The filters were then saturated with blocking buffer (5% non-fat milk, then 1% milk in HB buffer plus 0.05% NP40) at 4° C. overnight. In vitro translated 35S-labeled proteins were generated in reticulocyte lysate (Promega) and were diluted into a hybridization buffer (20 mM Hepes, pH 7.7; 75 mM KCl; 0.1 mM EDTA; 2.5 mM MgC12; 0.05% NP40; 1% milk; 1 mM DTT). […] The bound 35S-labeled proteins were detected by autoradiography.
# Since SRC-1 can interact with the general transcriptional coactivator CBP and p300 (Yao, T. P., et al. (1996) Proc Natl Acad Sci USA 93, 10626–31.), it was determined whether RAC3 can also interact with CBP by far-Western analyses. Serial GST-CBP fusions covering the SRC-1 interacting domain were analyzed for interactions with ^35S-labeled full-length RAC3, SRC-1 and RAC3-AD (FIGS. 3A, B and C). […]
substance,measurement,setting,value
"RAC3: transcriptional coactivator of steroid/nuclear receptors, protein of about 1417 amino acids (SEQ ID NO:2); RAC3.1 is the two-hybrid clone, amino acids 401–1204",interaction with PPAR,PPAR (LBD of mPPARα),ligand-dependent manner
same,HAT activity,histone,very weakly
same,interaction with CBP fragments C and D,CBP,interacts strongly
